Values quoted from earlier work in US20050163856A1, “Abuse-resistant sustained-release opioid formulation” (Roxane Laboratories, Inc., priority 1999, published 2005).
Where a name gives a salt, the structure may show the parent alone.

Conditions: conventional tablet form

In the case of `COc1ccc2c3c1O[C@H]1C(=O)CC[C@@]4(O)[C@@H](C2)N(C)CC[C@]314` [Oxycodone, oxycodone (dihydrohydroxycodeinone) hydrochloride], the half-time of absorption is given as “about 0.4 hours”.
